Here are results for one molecule from BindingDB's records for doi:10.1021/jm00384a016 (1987).

One may read the Ki as the dissociation constant of the complex between target and ligand, obtained from inhibition or displacement.

This experiment has as its target T1, Adenosine receptor A1 (Rattus norvegicus, UniProt P25099).
T1 sequence (P25099 whole entry): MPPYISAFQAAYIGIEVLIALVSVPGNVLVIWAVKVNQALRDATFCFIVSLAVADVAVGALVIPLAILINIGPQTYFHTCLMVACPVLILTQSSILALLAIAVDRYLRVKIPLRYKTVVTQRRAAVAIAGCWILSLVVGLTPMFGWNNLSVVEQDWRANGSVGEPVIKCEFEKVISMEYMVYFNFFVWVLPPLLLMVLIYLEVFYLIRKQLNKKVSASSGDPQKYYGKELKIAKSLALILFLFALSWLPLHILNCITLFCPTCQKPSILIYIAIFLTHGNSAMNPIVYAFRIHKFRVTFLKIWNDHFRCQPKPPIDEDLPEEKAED
Description: Binding affinity against adenosine A1 receptor in rat brain membrane using N6-[3H]cyclohexyladenosine.

In the case of `CC(Sc1nc(SC(C)C(N)=O)c2cnn(-c3ccccc3)c2n1)C(N)=O` (stereo unspecified) [2-[6-(1-Carbamoyl-ethylsulfanyl)-1-phenyl-1H-pyrazolo[3,4-d]pyrimidin-4-ylsulfanyl]-propionamide], the Ki turned out to be 370 nM.
